Data reported in patent publication US10246448B2, “4-hydroxy-2-phenyl-1,3-thiazol-5-yl methanone derivatives as TRPM8 antagonists” (DOMPÉ FARMACEUTICI S.P.A., priority 2015, dated 2019).

Legend:
human TRPM8 [1] = molecular target: T1, human TRPM8 (Homo sapiens, UniProt Q7Z2W7); assay: In vitro TRPM8 assay: intracellular calcium levels, Ca2+ sensitive fluorescent dye (FLIPR), agonist Icilin or Cooling Agent 10; assay type: cell-based; set-up: expressed in transfected cells; conditions: HEK-293 cells stably expressing human TRPM8
Method: The TRPM8 antagonistic activity of all 26 compounds was determined by measuring changes in intracellular calcium levels using a Ca^+2 sensitive fluorescent dye. The experiments were performed using HEK-293 cells stably expressing the human TRPM8. Cells were seeded 10000 cells/well in 384 plates coated by Poly-D-Lysine MATRIX black/clear bottom (Thermo Scientific, Waltham, Mass. USA) in complete medium and grown overnight at 37° C., 5% CO2. 24 h after seeding, cell culture media was removed, cells were washed with Tyrode's assay buffer and then loaded with the fluorescent Ca^+2 indicator Fluo-4 NW dye (Molecular Probes, Life Technologies, Paisley, UK) supplemented with water-soluble Probenecid (Molecular Probes). Dye loaded cell plates were incubated for 1 h at room temperature. The compounds or vehicle were added and the kinetic response was monitored by a fluorimetric imaging plate ([…]; Molecular Devices, Sunnyvale, Calif., USA) over a period of five minutes (300 seconds). A second injection 5 minutes later of the reference agonist Cooling Agent 10 or Icilin at EC80 concentration was performed. The signal of the emitted fluorescence was recorded during additional three minutes. Data were analyzed by Spotfire DecisionSite version 9.1.1. The bioactivity exerted by the compounds or vehicle was expressed as a percent inhibition and IC50 values were then calculated.

human TRPM8 [2] = molecular target: T1, human TRPM8; assay: In vitro cold stimulation assay
Method: The TRPM8 antagonisticic activity of all 26 compounds was determined in an in vitro cold stimulation assay.
3-4 days after seeding (˜80% confluent cells), the medium was removed and cells were loaded by a solution of Screen Quest™ Fluo-8 NW dye (ABS Bioquest, Sunnyvale, Calif., USA) in the dark. Dye-loaded cell flasks were incubated for 45 minutes at room temperature in the dark and the Fluo-8 NW solution was then removed and cells were seeded in the 96 Assay Plates (MicroAmp™ Optical 96-Well Reaction Plates; Applied Biosystems, Life technologies) at 100,000 cells/'well (20 μl/well). […] All data point determinations were performed in duplicate before a mean value was calculated, including error bars representing the standard error of the mean.

[3] = Metabolic stability in rat microsomes, Phase I assay; assay type: in vitro ADME; conditions: pH 7.4; rat liver microsomes 0.5 mg/ml, compound 1 μM, NADP cofactors mixture, 37° C.; read-out: Metabolic Stability (t1/2, min) Phase1
Method: Compounds 1, 2, 8 and 9 in duplicate were dissolved in DMSO and pre-incubated, at the final concentration of 1 μM, for 10 min at 37° C. in potassium phosphate buffer 50 mM pH 7.4, 3 mM MgCl2, with rat liver microsomes (Xenotech) at the final concentration of 0.5 mg/ml.
After the pre-incubation period, reactions were started by adding the cofactors mixture (NADP, Glc6P, Glc6P-DH in 2% Sodium bicarbonte); samples (50 μl) were taken at time 0, 10, 20, 30 and 60 min added to 150 μl of acetonitrile with Verapamil 0.02 μM as Internal Standard (IS) to stop the reaction. After centrifugation the supernatants were analysed by LC-MS/MS.
A control sample without cofactors was added in order to check the stability of test compounds in the matrix after 60 min. 7-Ethoxycoumarin and propranolol were added as reference standards.

[4] = Metabolic stability in rat microsomes, Phase II assay; assay type: in vitro ADME; conditions: pH 7.4; rat liver microsomes 0.5 mg/mL, Alamethicin activated, UDPGA, compound 1 μM, 37° C.; read-out: Metabolic Stability (t1/2, min) Phase2
Method: Rat liver microsomes (0.5 mg/mL final conc.) were incubated in ice for 15 min in 50 mM potassium phosphate buffer pH 7.4, 3 mM MgCl2 and activated with Alamethicin 50 μg/mg microsomal protein. Samples were transferred at 37° C. and compounds 1, 2, 8 and 9, dissolved in DMSO, were added in duplicate at the final concentration of 1 μM. After 5 min, reaction is started by adding 25 μl of UDPGA (16.15 mg/ml in 0.2% Sodium Bicarbonate). Samples were taken at time 0, 10, 20, 30 and 60 min added to 150 μl of acetonitrile with Verapamil 0.02 uM as Internal Standard (IS) to stop the reaction. After centrifugation the supernatants were analysed by LC-MS/MS. 7-Hydroxycoumarin was added as reference standard.

[5] = agonist Cooling Agent 10 at EC80, read-out: Ca2+ (IC50 μM) Cool 10
[6] = agonist Icilin at EC80, read-out: Ca2+ (IC50 μM) Icilin

T1 sequence (Q7Z2W7 whole entry): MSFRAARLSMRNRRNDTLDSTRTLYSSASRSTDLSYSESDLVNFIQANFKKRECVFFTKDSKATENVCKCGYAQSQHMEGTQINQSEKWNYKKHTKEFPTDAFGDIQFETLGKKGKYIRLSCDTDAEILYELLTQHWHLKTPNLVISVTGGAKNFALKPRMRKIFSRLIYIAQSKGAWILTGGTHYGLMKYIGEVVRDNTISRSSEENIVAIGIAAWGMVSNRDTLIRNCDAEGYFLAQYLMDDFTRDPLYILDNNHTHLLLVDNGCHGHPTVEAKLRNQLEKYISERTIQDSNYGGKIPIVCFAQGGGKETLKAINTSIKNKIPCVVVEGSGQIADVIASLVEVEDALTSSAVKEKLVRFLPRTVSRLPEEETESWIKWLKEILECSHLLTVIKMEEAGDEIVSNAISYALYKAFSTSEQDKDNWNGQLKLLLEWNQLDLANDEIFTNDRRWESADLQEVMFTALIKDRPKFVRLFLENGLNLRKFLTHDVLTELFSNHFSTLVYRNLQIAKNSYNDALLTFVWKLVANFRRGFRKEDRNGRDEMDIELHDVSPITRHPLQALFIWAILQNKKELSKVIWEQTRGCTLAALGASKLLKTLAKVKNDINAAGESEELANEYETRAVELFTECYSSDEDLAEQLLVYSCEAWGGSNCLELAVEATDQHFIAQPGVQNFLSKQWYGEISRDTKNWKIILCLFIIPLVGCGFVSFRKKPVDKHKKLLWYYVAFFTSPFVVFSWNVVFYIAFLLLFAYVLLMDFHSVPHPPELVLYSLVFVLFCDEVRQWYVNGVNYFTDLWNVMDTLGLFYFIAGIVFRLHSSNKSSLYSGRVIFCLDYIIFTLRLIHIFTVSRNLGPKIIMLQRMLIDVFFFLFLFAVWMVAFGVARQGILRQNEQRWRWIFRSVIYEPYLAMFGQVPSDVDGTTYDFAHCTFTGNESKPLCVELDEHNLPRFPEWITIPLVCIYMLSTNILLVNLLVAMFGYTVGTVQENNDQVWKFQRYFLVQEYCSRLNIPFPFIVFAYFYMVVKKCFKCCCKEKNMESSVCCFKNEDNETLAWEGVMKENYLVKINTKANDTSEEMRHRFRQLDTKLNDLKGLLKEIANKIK

Structure (SMILES)	IC50 (human TRPM8 [1]; [5]) [µM]	IC50 (human TRPM8 [1]; [6]) [µM]	IC50 (human TRPM8 [2]) [nM]	half-life at 1 μM [3] [min]	half-life at 1 μM [4] [min]
O=C(c1sc(-c2cccc(F)c2)nc1O)N1CCCOC1 [Example 10, [2-(3-fluorophenyl)-4-hydroxy-1,3-thiazol-5-yl](1,3-oxazinan-3-yl)methanone]	0.256	0.231	102	55	46
O=C(c1sc(-c2ccccc2O)nc1O)N1CCOCC1 [Example 13, [4-hydroxy-2-(2-hydroxyphenyl)-1,3-thiazol-5-yl](morpholin-4-yl)methanone]	1.12	1.22	752	78	36
O=C(c1sc(-c2cccc(F)c2)nc1O)C1CCCN1 (stereo not drawn) [Example 15, [2-(3-fluorophenyl)-4-hydroxy-1,3-thiazol-5-yl](pyrrolidin-2-yl)methanone]	1.56	1.23	1310	65	54
O=C(c1sc(-c2cccc(F)c2)nc1O)C1CCCO1 (stereo not drawn) [Example 5, [2-(3-fluorophenyl)-4-hydroxy-1,3-thiazol-5-yl](oxolan-2-yl)methanone]	0.326	0.362	124	52	45
O=C(c1sc(-c2ccccc2O)nc1O)N1CCOC1 [Example 4, [4-hydroxy-2-(2-hydroxyphenyl)-1,3-thiazol-5-yl](1,3-oxazolidin-3-yl)methanone]	0.104	0.122	39	64	41

The next lines start with the values.

IC50 (human TRPM8 [1]; [5]) [µM]	IC50 (human TRPM8 [1]; [6]) [µM]	IC50 (human TRPM8 [2]) [nM]	half-life at 1 μM [3] [min]	half-life at 1 μM [4] [min]	Structure (SMILES)
0.482	0.564	124	90	82	O=C(c1ccc[nH]1)c1sc(-c2cccc(F)c2)nc1O [Example 17, [2-(3-fluorophenyl)-4-hydroxy-1,3-thiazol-5-yl](1H-pyrrol-2-yl)methanone]
0.621	0.695	578	52	51	O=C(c1cccnc1)c1sc(-c2cccc(F)c2)nc1O [Example 23, [2-(3-fluorophenyl)-4-hydroxy-1,3-thiazol-5-yl](pyridin-3-yl)methanone]
0.601	0.624	525	40	48	O=C(c1ccncc1)c1sc(-c2cccc(F)c2)nc1O [Example 24, [2-(3-fluorophenyl)-4-hydroxy-1,3-thiazol-5-yl](pyridin-4-yl)methanone]
1.17	1.15	1780	42	21	O=C(c1ccco1)c1sc(-c2cccc(F)c2)nc1O [Example 19, [2-(3-fluorophenyl)-4-hydroxy-1,3-thiazol-5-yl](furan-2-yl)methanone]
